In patent publication US9763444B2, “Compositions and methods for repelling blood-sucking and biting insects, ticks and mites” (The United States of America, as represented by the …, priority 2013, dated 2017):

Tests used:
[1] = tested on: Ae. aegypti; test: Minimum Effective Dosage (MED) test on treated cloth, mosquito repellency; assay type: in vivo, Aedes aegypti; conditions: for Ae. aegypti Minimum Effective Dosage, F1: human subject F1; for Ae. aegypti Minimum Effective Dosage, F1 / Ae. aegypti Minimum Effective Dosage, M1 / Ae. aegypti Minimum Effective Dosage, M2: highest concentration 1.500 mg/cm^2; for Ae. aegypti Minimum Effective Dosage, M1: human subject M1; for Ae. aegypti Minimum Effective Dosage, M2: human subject M2; for Ae. aegypti Minimum Effective Dosage, Average: mean of 3 volunteers; for mosquito repellent activity against Ae. aegypti (in words): MED test on treated cloth; for Ae. aegypti Minimum Effective Dosage, M4: subject M4; for Ae. aegypti Minimum Effective Dosage, M4 / Ae. aegypti Minimum Effective Dosage, M5 / Ae. aegypti Minimum Effective Dosage, M8: highest dose 0.375 mg/cm2 (0.187 for 7); for Ae. aegypti Minimum Effective Dosage, M5: subject M5; for Ae. aegypti Minimum Effective Dosage, M8: subject M8
Description: Bioassay for mosquito repellent activity: Repellency screening test for experimental chemicals were carried out to identify candidates that might be useful repellents. The repellent efficacy was compared to that of the standard repellent, DEET. Experimental compounds were assessed in one of two ways: (1) a range of concentration was evaluated to determine the minimum effective dosage (MED) which was the concentration threshold of where the repellent began to fail and allowed bites, or (2) a predetermined concentration of each repellent was applied to cloth and the activity was evaluated over several days (or in some cases months) (Katritzky, A. R., et al., Proc. Nat. Acad. Sci. (US), 105, 7359-7364 (2008); Katritzky, A. R., et al., Journal of Med. Entomol., 47: 924-938 (2010)). When conducting assays for repellency, a failure point was also predetermined for those measurements. Since experiments described herein used about 500 female mosquitoes per test, the failure point was set at 1% (equal to 5 bites) received during a test interval. From 3 to 5 volunteers participated in the screening of each set of chemicals.
Minimum Effective Dosage (MED) Test: The MED bioassays on treated cloth were a method of screening to determine the minimum amount of a repellent needed to prevent bites. Experimental compounds were prepared in solution by combining 0.15 g of experimental chemical with 2 mL of acetone in a 7.1 mL screwtop glass vial. This solution was then serially diluted to obtain nine concentrations when applied on to the cloth patch: 1.5, 0.75, 0.375, 0.187, 0.094, 0.047, 0.023, 0.011, and 0.006 mg/cm^2. The standard N,N-diethyl-3-methylbenzamide (DEET) was also tested at the same concentration levels to serve as a control and a comparison for relative repellency. A 50 cm^2 (5 cm×10 cm) patch of muslin cloth was rolled lengthwise and placed into each of the glass vials and scaled with a screwtop so it soaked up the solution. Just prior to the experiment, the pieces of treated cloth were removed from the vials, affixed to card stock tabs (5 cm×3 cm) with staples, and hung with masking tape on a rack to dry and allow acetone to evaporate. Volunteers wore a latex glove over their hands, a nylon stocking over their arm, and then wrapped a plastic Velcro-sealed sleeve over their entire forearm with a 32 cm^2 (4 cm×8 cm) window cut-out to allow mosquitoes to bite through. The nylon stocking acted as a barrier between the dried cloth and the skin, an additional precaution with experimental compounds. Dried cloth patches were stretched across the window in the plastic sleeve and held in place with masking tape. Volunteers placed their sleeve-covered arms into a screened cage for a one minute period with approximately 500 female Ae. aegypti mosquitoes that had been preselected for host-seeking behavior using a draw box (Posey, K. H., and C. E. Schreck, Mosquito News, 41: 566-568 (1981)). […] The MED recorded was the lowest passing concentration level tested for the experimental compound. […] All human volunteers in the study provided informed consent to participate of a protocol approved by the University of Florida Human Use Institutional Review Board (IRB #636-2005).

[2] = tested on: Ae. aegypti; test: Complete Protection Time test on treated cloth (duration of protection); assay type: in vivo, Aedes aegypti; conditions: Dosage 0.75 mg/cm^2 on cloth
Description: Bioassay for mosquito repellent activity: Repellency screening test for experimental chemicals were carried out to identify candidates that might be useful repellents. The repellent efficacy was compared to that of the standard repellent, DEET. Experimental compounds were assessed in one of two ways: (1) a range of concentration was evaluated to determine the minimum effective dosage (MED) which was the concentration threshold of where the repellent began to fail and allowed bites, or (2) a predetermined concentration of each repellent was applied to cloth and the activity was evaluated over several days (or in some cases months) (Katritzky, A. R., et al., Proc. Nat. Acad. Sci. (US), 105, 7359-7364 (2008); Katritzky, A. R., et al., Journal of Med. Entomol., 47: 924-938 (2010)). When conducting assays for repellency, a failure point was also predetermined for those measurements. Since experiments described herein used about 500 female mosquitoes per test, the failure point was set at 1% (equal to 5 bites) received during a test interval. From 3 to 5 volunteers participated in the screening of each set of chemicals. Complete Protection Time Test: Complete protection time (CPT) on treated cloth is a method of screening that is used to determine the repellent duration for experimental chemicals that have not been examined for safe use on humans. The standard repellent DEET was used as a positive control as a benchmark by which to compare the repellents. Experimental compounds were prepared in solution by combining 0.075 g of experimental chemical with 1 mL of acetone in a 7.1-mL screwtop glass vial. The same concentration level of DEET was also prepared in this way to serve as a control and a comparison for relative repellency. A 50 cm^2 (5 cm×10 cm) patch of muslin cloth was rolled lengthwise and placed into each of the glass vials and sealed with a screwtop so it soaked up the solution. Just prior to the experiment, the pieces of treated cloth were removed from the vials, affixed to card stock tabs (5 cm×3 cm) with staples, and hung with masking tape on a rack to dry and allowed the volatile acetone to evaporate. Similar to the MED tests, volunteers wore a latex glove over their hands, a nylon stocking over their arm, and then wrapped a plastic Velcro-sealed sleeve over their entire forearm with a 32 cm^2 (4 cm×8 cm) window cut-out to allow mosquitoes to bite through. Dried cloth patches were stretched across the window in the plastic sleeve and held in place with masking tape. Volunteers placed their sleeve-covered arms into a screened cage for a one minute period with approximately 500 female Ae. aegypti mosquitoes that had been preselected for host-seeking behavior using a draw box. A cloth patch that received a 1% bite through level, equal to 5 mosquitoes that bit out of 500 mosquitoes, was considered a failure at that concentration. If 0-4 bites were received, then the treated cloth was still considered to be repellent at that concentration. The duration was recorded as the number of days an experimental chemical received a passing result, with day 0 being the day the sample was first dried. […] As with the tests conducted to determine CPT, volunteers in the study provided informed consent (IRB protocol #636-2005). The protocol was approved by the University of Florida Human Use Institutional Review Board.

## CC1(C)C=Cc2ccc(Cl)cc2O1 [Compound 12]
[1]; Table 2
  Ae. aegypti Minimum Effective Dosage, F1: 0.750 mg/cm^2
  Ae. aegypti Minimum Effective Dosage, M1: 0.750 mg/cm^2
  Ae. aegypti Minimum Effective Dosage, M2: 0.750 mg/cm^2
  Ae. aegypti Minimum Effective Dosage, Average: 0.750 mg/cm^2

## COC(=O)c1ccc(Cl)c2c1C=CC(C)(C)O2 [Compound 14, Methyl 8-chloro-2,2-dimethyl-2H-chromene-5-carboxylate]
[1]; Table 2
  Ae. aegypti Minimum Effective Dosage, F1: >1.500 mg/cm^2
  Ae. aegypti Minimum Effective Dosage, M1: >1.500 mg/cm^2
  Ae. aegypti Minimum Effective Dosage, M2: >1.500 mg/cm^2

## CC1(C)C=Cc2cccc(Cl)c2O1 [Compound 15]
[1]; Table 2
  Ae. aegypti Minimum Effective Dosage, F1: 0.094 mg/cm^2
  Ae. aegypti Minimum Effective Dosage, M1: 0.094 mg/cm^2
  Ae. aegypti Minimum Effective Dosage, M2: 0.187 mg/cm^2
  Ae. aegypti Minimum Effective Dosage, Average: 0.125 mg/cm^2

## COC(=O)c1c(Cl)ccc2c1C=CC(C)(C)O2 [Compound 16]
[1]; Table 2
  Ae. aegypti Minimum Effective Dosage, F1: >1.500 mg/cm^2
  Ae. aegypti Minimum Effective Dosage, M1: >1.500 mg/cm^2
  Ae. aegypti Minimum Effective Dosage, M2: >1.500 mg/cm^2

## CC1(C)C=Cc2cc(Cl)ccc2O1 [Compound 17]
[2]
  Duration of protection, Proportion to DEET: 0.50
[2]; subject M-3
  Duration of protection against Ae. aegypti, M-3 Days Protection: 1 days

## COCc1cccc2c1C=CC(C)(C)O2 [Compound 18, 5-(methoxymethyl)-2,2-dimethyl-2H-chromene]
[1]
  mosquito repellent activity against Ae. aegypti (in words): diminished repellent activity
[1]; Table 5
  Ae. aegypti Minimum Effective Dosage, Average: 0.094 mg/cm^2
  Ae. aegypti Minimum Effective Dosage, M4: 0.047 mg/cm^2
  Ae. aegypti Minimum Effective Dosage, M5: 0.047 mg/cm^2
  Ae. aegypti Minimum Effective Dosage, M8: 0.187 mg/cm^2

## COCCc1ccc2c(c1)C=CC(C)(C)O2 [Compound 19, 6-(2-methoxyethyl)-2,2-dimethyl-2H-chromene]
[1]
  mosquito repellent activity against Ae. aegypti (in words): did not show any improvement of activity
[1]; Table 5
  Ae. aegypti Minimum Effective Dosage, M4: >0.375 mg/cm^2
  Ae. aegypti Minimum Effective Dosage, M5: >0.375 mg/cm^2
  Ae. aegypti Minimum Effective Dosage, M8: >0.375 mg/cm^2
